Test results as given in PubChem BioAssay (NCI).
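Dose response: 5 concentrations. Exposure: 48 h. Format: 96-well plates. Endpoint: linear interpolation; highest concentration if not reached. TGI: total growth inhibition.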

How the values were obtained:
Test in all cases: NCI-60 cell line screen, 48 h
[1] = system: T-47D breast
[2] = system: OVCAR-8 ovarian
[3] = system: NCI-H226 lung
[4] = system: OVCAR-4 ovarian
[5] = system: HCT-15 colon
[6] = system: LOX IMVI melanoma
[7] = system: UACC-62 melanoma
[8] = system: SK-MEL-28 melanoma
[9] = system: ACHN renal
[10] = system: MCF7 breast
[11] = system: SNB-19 CNS
[12] = system: SNB-75 CNS
[13] = system: NCI-H460 lung
[14] = system: MALME-3M melanoma
[15] = system: DU-145 prostate
[16] = system: OVCAR-3 ovarian
[17] = system: SN12C renal
[18] = system: IGROV1 ovarian
[19] = system: SK-MEL-5 melanoma
[20] = system: HL-60(TB) leukemia
[21] = system: UACC-257 melanoma
[22] = system: HCT-116 colon
[23] = system: K-562 leukemia
[24] = system: PC-3 prostate
[25] = system: 786-0 renal
[26] = system: HT29 colon
[27] = system: CCRF-CEM leukemia
[28] = system: MDA-MB-435
[29] = system: MDA-MB-231 breast
[30] = system: U251 CNS
[31] = system: NCI-H522 lung
[32] = system: BT-549 breast
[33] = system: NCI-H23 lung
[34] = system: SW-620 colon
[35] = system: UO-31 renal
[36] = system: SK-MEL-2 melanoma
[37] = system: SR leukemia
[38] = system: HCC-2998 colon
[39] = system: TK-10 renal
[40] = system: SF-268 CNS
[41] = system: MDA-N
[42] = system: A549 NSCLC
[43] = system: CAKI-1 renal
[44] = system: A498 renal
[45] = system: MOLT-4 leukemia
[46] = system: HOP-62 NSCLC
[47] = system: M14 melanoma
[48] = system: RPMI-8226 leukemia
[49] = system: OVCAR-5 ovarian
[50] = system: KM12 colon
[51] = system: SF-539 CNS
[52] = system: NCI/ADR-RES ovarian
[53] = system: SF-295 CNS
[54] = system: EKVX NSCLC
[55] = system: RXF 393 renal
[56] = system: SK-OV-3 ovarian
[57] = system: COLO 205 colon

SMILES: Cc1ccc(N=NC(=O)NNc2ccc(C)c([N+](=O)[O-])c2)cc1[N+](=O)[O-]
- TGI [1]: > 100 µM
- TGI [2]: > 100 µM
- TGI [3]: > 100 µM
- TGI [4]: 82.6 µM
- TGI [5]: > 100 µM
- TGI [6]: 36.7 µM
- TGI [7]: 50.2 µM
- TGI [8]: 77.4 µM
- TGI [9]: 90.3 µM
- TGI [10]: 69.5 µM
- TGI [11]: > 100 µM
- TGI [12]: 95.9 µM
- TGI [13]: 77 µM
- TGI [14]: 83.3 µM
- TGI [15]: > 100 µM
- TGI [16]: 57.4 µM
- TGI [17]: > 100 µM
- TGI [18]: > 100 µM
- TGI [19]: 77.7 µM
- TGI [20]: 50.4 µM
- TGI [21]: 88.3 µM
- TGI [22]: > 100 µM
- TGI [23]: 50.3 µM
- TGI [24]: > 100 µM
- TGI [25]: 90.4 µM
- TGI [26]: > 100 µM
- TGI [27]: > 100 µM
- TGI [28]: > 100 µM
- TGI [29]: > 100 µM
- TGI [30]: > 100 µM
- TGI [31]: 36.8 µM
- TGI [32]: > 100 µM
- TGI [33]: > 100 µM
- TGI [34]: > 100 µM
- TGI [35]: 82.8 µM
- TGI [36]: 30.3 µM
- TGI [37]: > 100 µM
- TGI [38]: 33 µM
- TGI [39]: > 100 µM
- TGI [40]: > 100 µM
- TGI [41]: > 100 µM
- TGI [42]: > 100 µM
- TGI [43]: > 100 µM
- TGI [44]: 63.2 µM
- TGI [45]: 65.5 µM
- TGI [46]: 63.5 µM
- TGI [47]: > 100 µM
- TGI [48]: 85.8 µM
- TGI [49]: > 100 µM

SMILES: CCOP(=O)(/C=C/n1ccc(=O)[nH]c1=O)OCC
- TGI [50]: > 100 µM
- TGI [1]: > 100 µM
- TGI [2]: > 100 µM
- TGI [3]: > 100 µM
- TGI [4]: > 100 µM
- TGI [5]: > 100 µM
- TGI [51]: > 100 µM
- TGI [6]: > 100 µM
- TGI [7]: > 100 µM
- TGI [8]: > 100 µM
- TGI [9]: > 100 µM
- TGI [10]: > 100 µM
- TGI [52]: > 100 µM
- TGI [53]: > 100 µM
- TGI [11]: > 100 µM
- TGI [12]: > 100 µM
- TGI [13]: > 100 µM
- TGI [15]: > 100 µM
- TGI [16]: > 100 µM
- TGI [17]: > 100 µM
- TGI [18]: > 100 µM
- TGI [19]: > 100 µM
- TGI [20]: > 100 µM
- TGI [21]: > 100 µM
- TGI [22]: > 100 µM
- TGI [23]: > 100 µM
- TGI [24]: > 100 µM
- TGI [25]: > 100 µM
- TGI [26]: > 100 µM
- TGI [27]: > 100 µM
- TGI [54]: > 100 µM
- TGI [28]: > 100 µM
- TGI [29]: > 100 µM
- TGI [55]: > 100 µM
- TGI [56]: > 100 µM
- TGI [30]: > 100 µM
- TGI [57]: > 100 µM
- TGI [31]: > 100 µM
- TGI [32]: > 100 µM
- TGI [33]: > 100 µM
- TGI [34]: > 100 µM
- TGI [36]: > 100 µM
- TGI [39]: > 100 µM
- TGI [40]: > 100 µM
- TGI [41]: > 100 µM
- TGI [42]: > 100 µM
- TGI [43]: > 100 µM
- TGI [44]: > 100 µM
- TGI [45]: > 100 µM
- TGI [46]: > 100 µM
- TGI [47]: > 100 µM
- TGI [48]: > 100 µM
- TGI [49]: > 100 µM
